# According to publication PMC8315078, “Molecular imaging of fibroblast activation protein after myocardial infarction using the novel radiotracer [^68Ga]MHLL1” (Theranostics, 2021):
# Tests used:
# [1] = target: T1, fibroblast activation protein (human FAP, hFAP) (Homo sapiens, UniProt Q12884); experiment: displacement of […]MHLL1 by cold compound in hFAP-transfected HT1080 cells (internalized activity); wild-type cells negative; assay type: cell-based
# T1 sequence (Q12884 1-760): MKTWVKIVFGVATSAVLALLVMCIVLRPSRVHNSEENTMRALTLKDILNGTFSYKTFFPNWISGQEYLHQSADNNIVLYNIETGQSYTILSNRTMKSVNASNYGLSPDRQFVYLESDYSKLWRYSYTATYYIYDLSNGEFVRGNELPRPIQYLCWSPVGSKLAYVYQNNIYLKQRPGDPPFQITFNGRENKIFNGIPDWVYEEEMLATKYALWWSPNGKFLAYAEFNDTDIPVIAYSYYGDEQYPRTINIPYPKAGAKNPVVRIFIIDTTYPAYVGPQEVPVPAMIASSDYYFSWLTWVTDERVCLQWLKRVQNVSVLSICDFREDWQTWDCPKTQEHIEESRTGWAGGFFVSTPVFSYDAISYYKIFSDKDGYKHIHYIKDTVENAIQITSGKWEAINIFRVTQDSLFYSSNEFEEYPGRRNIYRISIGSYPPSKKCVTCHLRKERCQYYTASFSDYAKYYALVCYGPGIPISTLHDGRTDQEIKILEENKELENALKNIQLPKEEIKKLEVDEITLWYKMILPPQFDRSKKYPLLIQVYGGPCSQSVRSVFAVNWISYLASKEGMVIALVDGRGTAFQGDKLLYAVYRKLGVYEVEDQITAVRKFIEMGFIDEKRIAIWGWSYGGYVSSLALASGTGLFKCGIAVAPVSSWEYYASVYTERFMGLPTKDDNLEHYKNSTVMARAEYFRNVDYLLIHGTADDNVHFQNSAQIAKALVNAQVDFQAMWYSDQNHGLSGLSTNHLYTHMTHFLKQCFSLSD
# [2] = target: fibroblast activation protein (murine FAP, mFAP) (Mus musculus, UniProt P97321)
# Sequence of fibroblast activation protein (murine FAP, mFAP) (P97321 whole entry): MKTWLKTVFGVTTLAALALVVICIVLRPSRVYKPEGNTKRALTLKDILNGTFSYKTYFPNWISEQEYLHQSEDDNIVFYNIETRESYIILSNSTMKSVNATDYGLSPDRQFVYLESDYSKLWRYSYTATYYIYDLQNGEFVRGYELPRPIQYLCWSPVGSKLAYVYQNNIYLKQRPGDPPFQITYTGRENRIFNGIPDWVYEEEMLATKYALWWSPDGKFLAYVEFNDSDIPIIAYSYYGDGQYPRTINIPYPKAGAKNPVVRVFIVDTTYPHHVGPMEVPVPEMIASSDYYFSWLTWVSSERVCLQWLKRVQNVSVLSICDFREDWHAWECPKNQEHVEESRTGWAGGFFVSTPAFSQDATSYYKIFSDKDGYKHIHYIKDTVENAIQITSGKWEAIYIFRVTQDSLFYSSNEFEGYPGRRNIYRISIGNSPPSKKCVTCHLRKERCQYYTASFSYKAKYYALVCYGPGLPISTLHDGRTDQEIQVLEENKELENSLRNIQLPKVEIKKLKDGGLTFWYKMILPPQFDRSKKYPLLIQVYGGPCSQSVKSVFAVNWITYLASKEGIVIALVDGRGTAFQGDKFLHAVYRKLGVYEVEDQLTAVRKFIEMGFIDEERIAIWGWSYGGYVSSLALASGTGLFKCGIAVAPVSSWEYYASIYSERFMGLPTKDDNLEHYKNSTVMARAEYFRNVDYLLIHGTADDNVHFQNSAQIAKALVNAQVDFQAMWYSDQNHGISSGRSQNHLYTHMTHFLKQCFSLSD
structure (smiles),measurement,setting,value
"N#C[C@@H]1CCCN1C(=O)CNC(=S)Nc1ccc(CNC(=O)CCC2C(=O)[O][Ga]3[O]C(=O)CN4CCN(CCN2CC4)CC(=O)[O]3)cc1 (stereo partly drawn) [[^natGa]MHLL1, [^68Ga]Ga-2,2'-(7-(1-carboxy-4-((4-(3-(2-((S)-2-cyano-pyrrolidin-1-yl)-2-oxoethyl)thioureido)benzyl)amino)-4-oxobutyl)-1,4,7-triazonane-1,4-diyl)diacetic acid]",IC50,[1],212 nM
same,IC50,[2],142 nM
